Columns and labels:
Type in all cases: cell-based, mouse
[1] = tested on: Dll4-mediated Notch signaling; experiment: MCP-1 expression in differentiated 3T3-L1 adipocytes
Experimental: 3T3-L1 preadipocytes (American Type Culture Collection) were maintained in Dulbecco's modified Eagle's medium (DMEM) (Gibco) containing 10% FBS. Differentiation of 3T3-L1 preadipocytes to mature adipocytes was performed as previously described and used as differentiated 3T3-L1 adipocytes at day 10 after the induction of differentiation. Differentiation was initiated two days after cells were confluent by adding fresh medium containing 0.5 mM isobutylmethylxanthine, 1 μM dexamethasone, and 10 μg/ml insulin. After two days, the methylisobutylxanthine and dexamethasone were removed and insulin was maintained for two additional days. On day 4 and thereafter, DMEM containing only 10% FBS was replaced every two days. […]
Applicants transfected siRNA against mouse Dll4 (Dharmacon), plasmid encoding mouse Dll4 (GeneCopoeia), RBP-Jκ reporter (SABiosciences), and Notch3 intracellular domains (N3ICD) to 3T3-L1 adipocytes by electroporation (Nucleofector system; Amaxa) according to the manufacturer's instructions. […] Luciferase activity was determined using a Dual-Luciferase Reporter Assay System (Promega). […]
(§1) Applicants synthesized cDNA from total RNA extracted from tissues and cells. Real-time quantitative RT-PCR was done with a MyiQ single-color real-time PCR detection system (BioRad) and PerfeCTa SYBR Green SuperMix for iQ (Quanta Biosciences). […]

NF-κB pathway = experiment: NF-κB activation in 3T3-L1 adipocytes (immunoblotting, immunocytochemistry)
Experimental: Differentiated 3T3-L1 adipocytes were starved for 16 hours and then used for in vitro experiments. For blockade Dll4-mediated Notch signaling, Applicants treated 3T3-L1 adipocytes with Dll4 Ab or IgG (10 μg/ml) and γ-secretase inhibitor (DAPT, 10 μM) or DMSO for 24 hours. To activate Dll4-mediated Notch signaling, Applicants seeded 3T3-L1 adipocytes to plates coated with recombinant mouse Dll4 (rDll4) (1 μg/ml), and then harvested cells after 48-hour incubation (Williams, et al., Blood 107:931-939 (2006)). Applicants also used SN50 (25 μg/ml) NF-κB inhibitor to determine the interaction between Notch signaling and the NF-κB pathway.
Differentiated 3T3-L1 adipocytes incubated in rDll4-coated plates were fixed in 4% paraformaldehyde and permeabilized with 0.1% NP40. After blocking with 1% goat serum, cells were incubated with a rabbit anti-p65 antibody (Santa Cruz Biotechnology), followed by an Alexa Fluor 594-conjugated donkey anti-rabbit Ig antibody (Molecular Probes). Nuclei were counterstained with Hoechst 33342 (Sigma). Cells were observed under an ECLIPSE TE2000-U (Nikon) equipped with a mercury illumination system and SPOT RT Camera (Diagnostic Instruments, Inc.).
Lysates prepared from tissues and cells in lysis buffer containing protease inhibitor cocktail (Sigma) and phosphatase inhibitor cocktail (Roche) were separated with SDS-PAGE gels. Applicants used the following antibodies: NF-κB p65 (Santa Cruz Biotechnology), phospho-NF-κB p65 (Rock Land), IK-Bα (Cell Signaling), and β-actin (Sigma).

[2] = tested on: Dll4-mediated Notch signaling; experiment: M1/M2 gene expression in RAW264.7 cells
Experimental: RAW264.7 cells (American Type Culture Collection) were also maintained in DMEM containing 10% FBS. For blockade of Dll4-mediated Notch signaling, Applicants pre-treated RAW264.7 cells with Dll4 Ab or IgG for 2 hours and then stimulated these cells with 1 ng/ml LPS for 24 hours. LPS stimulation activates the Notch signaling in RAW264.7 cells.
Applicants transfected siRNA against mouse Dll4 (Dharmacon), plasmid encoding mouse Dll4 (GeneCopoeia), RBP-Jκ reporter (SABiosciences), and Notch3 intracellular domains (N3ICD) to 3T3-L1 adipocytes by electroporation (Nucleofector system; Amaxa) according to the manufacturer's instructions. The Dll4-expressing plasmid was also transfected to RAW264.7 cells. N3ICD was a generous gift from Dr. Shigeru Chiba (Department of Clinical and Experimental Hematology, Graduate School of Comprehensive Human Sciences, University of Tsukuba). Applicants transfected 2 μg of siRNA or plasmid to cells and harvested them 48 hours or 24 hours after transfection, respectively. […] Luciferase activity was determined using a Dual-Luciferase Reporter Assay System (Promega). […]
as §1

RBP-Jκ reporter = RBP-Jκ reporter luciferase assay in 3T3-L1 adipocytes; settings: 3T3-L1 adipocytes on rDll4-coated plates
Excerpt: Applicants transfected siRNA against mouse Dll4 (Dharmacon), plasmid encoding mouse Dll4 (GeneCopoeia), RBP-Jκ reporter (SABiosciences), and Notch3 intracellular domains (N3ICD) to 3T3-L1 adipocytes by electroporation (Nucleofector system; Amaxa) according to the manufacturer's instructions. The Dll4-expressing plasmid was also transfected to RAW264.7 cells. N3ICD was a generous gift from Dr. Shigeru Chiba (Department of Clinical and Experimental Hematology, Graduate School of Comprehensive Human Sciences, University of Tsukuba). Applicants transfected 2 μg of siRNA or plasmid to cells and harvested them 48 hours or 24 hours after transfection, respectively. Applicants used 5 μl of RBP-Jκ reporter solution for each transfection. After incubation for 24 hours, cells were seeded to rDll4-coated plates and used for the luciferase assay after 48-hour incubation. Luciferase activity was determined using a Dual-Luciferase Reporter Assay System (Promega). Applicants transfected 5 μg of N3ICD to cells and harvested them 24 hours after transfection.

rDll4: recombinant mouse Dll4 coated on plates to activate Dll4-mediated Notch signaling
MCP-1 expression ([1]; 3T3-L1 adipocytes cultured on rDll4-coated dishes): promoted
degradation of IκBα (NF-κB pathway): increased
nuclear translocation of p65 (NF-κB pathway): increased
phosphorylation of NF-κB subunit p65 (NF-κB pathway): increased
anti-inflammatory M2 genes (e.g., IL-10) [2]: suppressed
expression of pro-inflammatory M1 genes such as IL-1β and iNOS [2]: induced expression
RBP-Jκ reporter activity (RBP-Jκ reporter): Stimulation

C[C@H](NC(=O)Cc1cc(F)cc(F)c1)C(=O)N[C@H](C(=O)OC(C)(C)C)c1ccccc1 [DAPT]
MCP-1 RNA expression ([1]; differentiated 3T3-L1 adipocytes, blockade of Notch signaling): produced a similar effect
